Measurements reported in the METLIN SMRT retention time set (Domingo-Almenara et al. 2019).

Test: gradient 5% acetonitrile 3 min, to 50% in 2 min, to 85% in 15 min, held 3 min, 100 µL/min
Settings: column: Zorbax Extend-C18 2.1 x 50 mm; eluents: water / acetonitrile, 0.1% formic acid
Summary of the method: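 The mobile phases were water and acetonitrile, each with 0.1% formic acid, pumped at 100 μL/min through a Zorbax Extend-C18 column (2.1 × 50 mm, 1.8 μm). Pure standards were injected as mixtures of ~100 molecules and detected by a quadrupole time-of-flight mass spectrometer in positive and negative ionization mode. Retention time came from computationally picked adduct peaks, each inspected by hand.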

Structure (SMILES) | RP-LC retention time [s]
CCOC(=O)Nc1ccc(C(=O)/C=C/c2ccccc2)cc1 | 1000
COc1ccc(-c2noc(-c3nn(-c4ccc(C)cc4)ccc3=O)n2)cc1OC | 827
CCS(=O)(=O)c1nc2ccc(NS(=O)(=O)c3cnc[nH]3)cc2s1 | 652
COCCCN(CC(=O)N1CCc2sccc2C1COc1ccc(Cl)cc1)C(=O)NC(C)C (stereo not drawn) | 996
COCCn1ncc(N2CCC(C(=O)Nc3ccc(F)cc3F)C2)cc1=O (stereo not drawn) | 666
Cc1cc2nc(N3CCOCC3)n(CC(=O)Nc3ccc(N(C)C)cc3)c(=O)c2n1C | 623
COc1ccccc1C(=O)N1CCN(c2cnn3c(C)nnc3c2)CC1 | 601
Cc1ccc(CNC(=O)c2ccc(-c3cncnc3)nc2)o1 | 678
Nc1ncnc2c1ncn2C=C=CCO | 581
CC(=O)c1ccc(Nc2c(C(=O)OC(C)C)cnc3nc(C)ccc23)cc1 | 616
COc1nn(C)cc1C(=O)Nc1nnc(-c2csc(C)n2)o1 | 578
CCn1c(=O)c(N2CCC(NC(=O)Nc3ccc(OC)c(OC)c3)CC2)nc2ccccc21 | 785
O=C(NCc1nnc(SC/C=C/c2ccccc2)o1)c1ccccc1 | 824
COC(=O)c1ccccc1NC(=O)C1CN(C(=O)c2ccc(F)c(F)c2)C1 | 803
c1cn(-c2cc(N3CCSCC3)ncn2)cn1 | 591
CCOc1ccc2nc(C(=O)NCc3ccc(C(F)(F)F)cc3)cn2n1 | 947
COc1ccc(S(=O)(=O)c2csc3c2NC(=O)CC3c2ccsc2)cc1 (stereo not drawn) | 892
CCCN(CC1CCOC1)C(=O)Nc1cccc(Cl)c1 (stereo not drawn) | 827
CCn1ccc(C(=O)N2CCCn3nc(-c4ccc(C)cc4)cc3C2)n1 | 805
COc1ccc(OC)c(-c2cn3ccn(-c4cccc(Cl)c4)c(=O)c3n2)c1 | 887
COc1ccc(-c2nnc(Cc3nc(-c4ccc(C)cc4)no3)o2)cc1OC | 762

Structure (SMILES) | RP-LC retention time [s]
COCCNc1ccc2nnc(C)n2n1 | 590
COc1ccc(-c2noc(Cc3nnc(-c4cc(C)cc(C)c4)o3)n2)cc1OC | 997
CCNC(=O)C1CCN(C(=O)Nc2ccc(NC(=O)Nc3ccc(C)cc3C)cc2)CC1 | 729
CCOc1ccc(S(=O)(=O)NCC(c2cn(C)c3ccccc23)N(C)C)cc1F (stereo not drawn) | 603
O=C(Cn1ccc2c(SCc3ccc(F)cc3)nccc21)N1CCN(c2ccccn2)CC1 | 595
COc1ccc(CC(=O)NC2CCN(c3cc(-c4ccc(F)cc4)[nH]n3)C2)cc1OC (stereo not drawn) | 670
CC(C)c1cc(=O)n(CC(=O)NCCn2nc(-c3cccs3)ccc2=O)cn1 | 619
CCOc1ccc(-c2cn3ccn(-c4ccc(F)c(Cl)c4)c(=O)c3n2)cc1 | 918
Cc1nc(-c2cccs2)sc1C(=O)NCCn1nc(-n2ccnc2C)ccc1=O | 564
O=C(CCC1CCCC1)Nc1ccc(CC(=O)NC2CC2)cc1 | 738
Cc1cc(C)c(C)c(S(=O)(=O)NCC2(c3cccs3)CCOCC2)c1C | 1050
Cc1cc(N2CCN(C(=O)c3cccc(N(C)C)c3)CC2)nc2nnc(C)n12 | 557
CCCCn1cc(S(=O)(=O)Nc2cccc(CC)c2)c2cccnc21 | 1070
COc1ccc(Cc2nc3nccc(-c4ccsc4)n3n2)cc1 | 897
O=c1ccc(-c2ccccc2)nn1Cc1nc(-c2ccccc2Cl)no1 | 976
COc1ccc2c(c1)C=C(C(=O)N1CCN(Cc3ccc(OC)c(OC)c3OC)CC1)CO2 | 682
Cc1cc(OCCCCOc2ccc(C#N)cc2)ccc1[N+](=O)[O-] | 1250
CCOc1ccc(OCC)c(N2C=C(C#N)S(=O)(=O)c3cc(F)ccc32)c1 | 1030
O=C(CCc1cccc2[nH]ccc12)Nc1ccc(N2CCOCC2)cc1 | 845
COc1ccccc1-c1nc(Cn2nnc(-c3nc(-c4ccc(C(F)(F)F)cc4)no3)c2C)c(C)o1 | 1240
COc1ccc(NC(=O)Cn2nc3nc(N4CCCCC4C)ccn3c2=O)cc1 (stereo not drawn) | 755

Structure (SMILES) | RP-LC retention time [s]
CC1=C(c2ccc(F)cc2)S(=O)(=O)N=C1N1CCCN(C(=O)c2ccoc2)CC1 | 752
O=C(Cn1nc2c(N3CCSCC3)nccn2c1=O)NCCC1=CCCCC1 | 861
Cc1ccc(CCNC(=O)c2cc3n(n2)CC(C)(C(=O)NC2CCCCC2)N(C)C3=O)cc1 (stereo not drawn) | 844
Cc1ccnc(N2CCC(C(=O)NCCSCc3ccco3)CC2)n1 | 680
COc1ccc(NC(=O)C(=O)c2cccn2C)c(OC)c1 | 976
Cc1ccc(-c2cc3c(=O)n(Cc4nc(-c5ccccc5)no4)ncn3n2)c(C)c1 | 1200
Cc1cc(CS(=O)(=O)c2ccccc2)cc(OCc2ccc(CN3CCC[C@@H]3CO)cc2)c1 | 788
Cc1cc(=O)n2c3ccccc3n(CC(O)CN3CCN(c4ccccc4)CC3)c2c1C#N (stereo not drawn) | 670
CCOC(=O)N1CCN(c2ncc3c(n2)CC(C)CC3=O)CC1 (stereo not drawn) | 842
O=C(NCCc1ccc(Cl)cc1)c1nnc(-c2ccc(S(=O)(=O)N3CCOCC3)cc2)o1 | 925
O=C(NC1CC1)C1CCN(C(=O)c2ncn3c2COC(c2ccccc2)C3)CC1 (stereo not drawn) | 619
O=C(CN1C(=O)C2CCCCN2c2ccc(S(=O)(=O)N3CCCC3)cc21)N1CCCCCC1 (stereo not drawn) | 918
Cc1ccc(C(=O)N(CCCN)[C@@H](c2nc3cc(Cl)ccc3c(=O)n2Cc2ccccc2)C(C)C)cc1 | 990
Cc1ccsc1C(=O)N1C[C@@H]2CCCN3CCC[C@@H]([C@H]23)[C@H]1CCCC(=O)NCC1CC1 | 612
Cc1ccccc1NC(=O)Cn1nc(N2CCOCC2)c2ccccc2c1=O | 774
COc1cccc(-c2cc(C(=O)N3CCN(c4ccccc4F)CC3)n(C)n2)c1 | 772
O=C(CSc1ncccn1)N1CCC(Cc2ccccc2)CC1 | 820
CC(=O)Nc1c(C(=O)Nc2ccc(Cl)cc2)nnn1-c1ccccc1 | 838
COc1ccc(C(=O)N2CCC3(CC2)NC(=O)c2ccc(F)cc2N3C)cc1 | 740

Next, values leading:

RP-LC retention time [s] | Structure (SMILES)
977 | Cc1oc(C2CCN(S(=O)(=O)c3ccc(Cl)cc3)CC2)nc1C(=O)N1CCCC1
973 | CSc1cccc(NC(=O)c2cn(C)nc2S(=O)(=O)N2CCSCC2)c1
1000 | Cc1ccc(C)c2sc(OC3CCN(C(=O)c4ccc(S(C)(=O)=O)cc4)CC3)nc12
922 | O=C(C1CCCN(c2ncnc3c2nc2n3CCCCC2)C1)N1CC=C(c2ccccc2)CC1 (stereo not drawn)
1090 | Cc1ccc(-c2noc(Cn3cnc4c(cnn4-c4ccccc4)c3=O)n2)cc1
800 | O=C(NCc1cccc(Br)c1)C1CCCN(C(=O)C2Sc3ccccc3NC2=O)C1 (stereo not drawn)
831 | O=S(=O)(c1cccn2c(SCc3cccc(F)c3)nnc12)N1CCCC1
949 | CC(C)N1Cc2cc(C(=O)N3CCC(Cc4ccccc4)CC3)sc2C1
801 | CCC(=O)N1CCc2cc(N3CC(C(=O)Nc4cccc(F)c4C)CC3=O)ccc21 (stereo not drawn)
880 | Cc1cccc(-n2c(N3CCCC(C(=O)NCc4ccccc4)C3)nc3ccsc3c2=O)c1 (stereo not drawn)
568 | CC(=O)N[C@@H]1CCNC[C@@H]1c1nc(-c2ccccc2)no1
903 | O=C(NCCc1ccccc1)C1CCCN(C(=O)c2cccc(C(F)(F)F)c2)C1 (stereo not drawn)
581 | CCN1CCN(CCCNC(=O)c2nnc(-c3ccc(S(=O)(=O)N4CCCC4)cc3)o2)CC1
729 | CCC(=O)N1CCCc2ccc(NC(=O)c3ccco3)cc21
732 | O=C(NCc1ccccn1)c1nnc(-c2ccc(S(=O)(=O)N3CCCCC3)cc2)o1
1110 | CCc1nc(-c2csc(S(=O)(=O)N3CCCC(C(=O)N4CCc5ccccc54)C3)c2)no1 (stereo not drawn)
768 | Cc1cccc(CNC(=O)C2CC(=O)N(c3ccc4c(c3)CCN4C(=O)C3CC3)C2)c1 (stereo not drawn)
614 | Cn1c(C(=O)N2CCCC(C(=O)N3CCN(c4ccccn4)CC3)C2)cc2sccc21 (stereo not drawn)
823 | Cn1nccc1C(=O)N1CCCC1c1ccccc1Cl (stereo not drawn)
956 | CCCS(=O)(=O)N1CC(=O)N(c2cccc(F)c2)C(C)(C(=O)NC2CCCCCC2)C1 (stereo not drawn)
598 | Cc1cccc(NC(=O)N2CCCC2c2nc(-c3cccc(C)c3)no2)c1 (stereo not drawn)
1020 | CCc1nc2cc(-c3noc(Cc4c[nH]c5ccccc45)n3)ccc2o1
862 | CC(NC(=O)c1ccc2c(c1)CCCN2S(C)(=O)=O)c1ccccc1 (stereo not drawn)
918 | CCc1ccccc1NC(=O)CN1C(=O)C2CCCCN2c2ccc(S(=O)(=O)N(C)C)cc21 (stereo not drawn)
822 | Cc1ccccc1NS(=O)(=O)c1cc2c(s1)CCN(C(=O)C1CC1)C2
620 | Cc1nc2cccnc2n1C1CCN(C(=O)Nc2ccc3c(c2)CCC3)C1 (stereo not drawn)
760 | Cn1c(C2CCN(S(=O)(=O)c3ccc(Cl)cc3)C2)nc2cccnc21 (stereo not drawn)
